Experimental findings from ChEMBL document CHEMBL3745709, “Synthesis of novel ethyl 1-ethyl-6-fluoro-7-(fatty amido)-1,4-dihydro-4-oxoquinoline-3-carboxylate derivatives and their biological evaluation” (Bioorg Med Chem Lett, 2016) are described below.

The term MIC denotes the lowest concentration found to suppress growth. As usually defined, the EC50 is the midpoint of the concentration-response curve. Usually IC50 stands for the concentration at which inhibition is half-maximal.

For one series, the system named is Raoultella planticola. The series is described as follows: Antibacterial activity against Klebsiella planticola MTCC 530 assessed as inhibition zone after 24 hrs at 30 degC by well diffusion method. It counts as functional. The note with it: MTCC 530, 24 h. (In general: In agar diffusion tests the substance spreads into inoculated agar from a disc or well.)
Series [1] is described as follows: Antioxidant activity assessed as DPPH free radical scavenging activity. It counts as physicochemical.
The test system of series [2] is Staphylococcus aureus. The series is described as follows: Antibacterial activity against Staphylococcus aureus MTCC 96 […] after 24 hrs at 30 degC by well diffusion method. In kind it is functional. As to conditions: MTCC 96, 24 h; call rule not given here.
The subject of a further series is Candida albicans. As to the kind of experiment: Antifungal activity against Candida albicans MTCC 3017 […] after 24 hrs at 30 degC by well diffusion method. It counts as functional. As to conditions: MTCC 3017, 24 h.
In the next series the test system is Micrococcus luteus. The series is described as follows: Antibacterial activity against Micrococcus luteus MTCC 2470 assessed as inhibition zone after 24 hrs at 30 degC by well diffusion method. In kind it is functional. The note with it: MTCC 2470, 24 h.
A further series relates to Bacillus subtilis. As to the kind of experiment: Antibacterial activity against Bacillus subtilis MTCC 121 assessed as inhibition zone after 24 hrs at 30 degC by well diffusion method. It counts as functional. The note with it: MTCC 121, 24 h.
Series [3] deals with Staphylococcus aureus. As to the kind of experiment: Antibacterial activity against Staphylococcus aureus MLS-16 MTCC 2940 assessed as inhibition zone after 24 hrs at 30 degC by well diffusion method. In kind it is functional. As to conditions: MLS-16 MTCC 2940, 24 h.
The test system of the next series is Pseudomonas aeruginosa. As to the kind of experiment: Antibacterial activity against Pseudomonas aeruginosa MTCC 2453 assessed as inhibition zone after 24 hrs at 30 degC by well diffusion method. The note with it: MTCC 2453, 24 h. In kind it is functional.
The test system of a further series is Escherichia coli. As to the kind of experiment: Antibacterial activity against Escherichia coli MTCC 739 assessed as inhibition zone after 24 hrs at 30 degC by well diffusion method. It counts as functional. As to conditions: MTCC 739, 24 h.
Series [4] is described as follows: Cytotoxicity against human SKOV3 cells assessed as reduction in cell viability by MTT assay. It counts as functional, cell-based. As to conditions: SK-OV-3.
The subject of series [5] is A549. As to the kind of experiment: Cytotoxicity against human A549 cells assessed as reduction in cell viability by MTT assay. It counts as functional, cell-based.
The test system of another series is MCF7. The series is described as follows: Cytotoxicity against human MCF7 cells assessed as reduction in cell viability by MTT assay. In kind it is functional, cell-based.
A short description of series [6]: Cytotoxicity against human DU145 cells assessed as reduction in cell viability by MTT assay. It counts as functional, cell-based. As to conditions: DU-145.
Series [7] deals with IMR-90. The series is described as follows: Selectivity index, ratio of IC50 for human IMR90 cells to IC50 for human DU145 cells. In kind it is functional.
Series [8] has as its system A549. The series is described as follows: Selectivity index, ratio of IC50 for human IMR90 cells to IC50 for human A549 cells. In kind it is functional.
In another series the test system is SK-OV-3. As to the kind of experiment: Selectivity index, ratio of IC50 for human IMR90 cells to IC50 for human SKOV3 cells. It counts as functional.
The nature of series [9]: Cytotoxicity against human IMR90 cells assessed as reduction in cell viability by MTT assay. In kind it is cell-based. As to conditions: IMR-90. (Formazan colour is commonly taken as a measure of viable cells.)
The test system of series [10] is IMR-90. The series is described as follows: Selectivity index, ratio of IC50 for human IMR90 cells to IC50 for human MCF7 cells. It counts as functional.

Converted amounts (≈) assume the structure as drawn.

Consider `C=CCCCCCCCCC(=O)Nc1cc2c(cc1F)c(=O)c(C(=O)OCC)cn2CC`, for which the MIC in the series on Raoultella planticola, with Staphylococcus aureus [2], against Candida albicans, in the series on Micrococcus luteus, with Bacillus subtilis and in the series with Staphylococcus aureus [3] was greater than 125 µg/mL in each case. Moreover, the MIC in the series with Pseudomonas aeruginosa and in the series on Escherichia coli was greater than 125 µg/mL each time. For the same molecule, the EC50 in [1] came out at 147.5 µg/mL (≈ 332 µM). Further, the IC50 is 91.2 µM in series [4], 66.5 µM in the series on A549 [5], 64.6 µM in the series on MCF7 and 87.3 µM in [6].
In the case of `CCCCCCCCCCCC(=O)Nc1cc2c(cc1F)c(=O)c(C(=O)OCC)cn2CC`, the MIC with Raoultella planticola, against Staphylococcus aureus [2], in the series on Candida albicans, in the series on Micrococcus luteus, in the series with Bacillus subtilis and with Staphylococcus aureus [3] was greater than 125 µg/mL each time. In addition, the MIC with Pseudomonas aeruginosa and in the series with Escherichia coli was greater than 125 µg/mL each time. Further, the EC50 result in series [1] is “Not Active”. The “Ratio IC50” value with IMR-90 [7] was determined as 6.6; with A549 [8], 7.7; with SK-OV-3 it was 8.1; with IMR-90 [10], 7.1. In addition, the IC50 came out at 9.8 µM in series [4]; 10.3 µM with A549 [5]; 11.2 µM in the series on MCF7; 79.8 µM in series [9]; 12.1 µM in series [6].
Consider `CCCCCCCC(=O)Nc1cc2c(cc1F)c(=O)c(C(=O)OCC)cn2CC`, for which the MIC in the series with Raoultella planticola, in the series on Staphylococcus aureus [2], against Candida albicans, in the series on Micrococcus luteus, in the series on Bacillus subtilis and with Staphylococcus aureus [3] was greater than 125 µg/mL each time. Moreover, the MIC with Pseudomonas aeruginosa and in the series on Escherichia coli was greater than 125 µg/mL each time. Also, the EC50 in series [1] was determined as 109.8 µg/mL (≈ 271 µM). Also, the “Ratio IC50” value in the series on IMR-90 [7] is reported as 9; with A549 [8] it was 9.9; in the series on SK-OV-3 it was 11.2; in the series with IMR-90 [10], 11.5. For the same molecule, the IC50 in series [4] came to 8.1 µM; in the series with A549 [5], 9.2 µM; in the series with MCF7, 7.9 µM; in series [9], 91.2 µM; in series [6], 10.1 µM.
With `CCCCCCCCCCCCCCCCCC(=O)Nc1cc2c(cc1F)c(=O)c(C(=O)OCC)cn2CC`, the MIC in the series with Raoultella planticola, against Staphylococcus aureus [2], in the series with Candida albicans, in the series on Micrococcus luteus, in the series on Bacillus subtilis and in the series on Staphylococcus aureus [3] was greater than 125 µg/mL each time. Further, the MIC with Pseudomonas aeruginosa and in the series on Escherichia coli was greater than 125 µg/mL throughout. The EC50 in [1] was determined as 798.8 µg/mL (≈ 1470 µM). Further, the IC50 in series [4] was 35.2 µM; in the series with A549 [5], 32.6 µM; in the series with MCF7 it was 28.4 µM; in series [6] it was 37.1 µM.
Consider `CCCCCCCCCCCCCC(=O)Nc1cc2c(cc1F)c(=O)c(C(=O)OCC)cn2CC`, for which the MIC in the series with Raoultella planticola, against Staphylococcus aureus [2], in the series with Candida albicans, in the series with Micrococcus luteus, in the series with Bacillus subtilis and in the series with Staphylococcus aureus [3] was greater than 125 µg/mL throughout. In addition, the MIC in the series with Pseudomonas aeruginosa and in the series with Escherichia coli was greater than 125 µg/mL throughout. In addition, the EC50 in series [1] stood at 286 µg/mL (≈ 585 µM). The “Ratio IC50” value worked out at 8.3 with IMR-90 [7], 9 with A549 [8], 10.5 with SK-OV-3 and 9.4 with IMR-90 [10]. Further, the IC50 in series [4] was 8.2 µM; in the series on A549 [5], 9.6 µM; in the series with MCF7, 9.1 µM; in series [9] it was 86.4 µM; in [6], 10.4 µM.
